# Results reported in patent US20250230155A1 (Vanderbilt University, priority 2021, published 2025).
# Molecular target: T1, human mAChR M4 (Homo sapiens, UniProt P08173)
# T1 construct: expressed in transfected cells
# T1 sequence (P08173 1-479): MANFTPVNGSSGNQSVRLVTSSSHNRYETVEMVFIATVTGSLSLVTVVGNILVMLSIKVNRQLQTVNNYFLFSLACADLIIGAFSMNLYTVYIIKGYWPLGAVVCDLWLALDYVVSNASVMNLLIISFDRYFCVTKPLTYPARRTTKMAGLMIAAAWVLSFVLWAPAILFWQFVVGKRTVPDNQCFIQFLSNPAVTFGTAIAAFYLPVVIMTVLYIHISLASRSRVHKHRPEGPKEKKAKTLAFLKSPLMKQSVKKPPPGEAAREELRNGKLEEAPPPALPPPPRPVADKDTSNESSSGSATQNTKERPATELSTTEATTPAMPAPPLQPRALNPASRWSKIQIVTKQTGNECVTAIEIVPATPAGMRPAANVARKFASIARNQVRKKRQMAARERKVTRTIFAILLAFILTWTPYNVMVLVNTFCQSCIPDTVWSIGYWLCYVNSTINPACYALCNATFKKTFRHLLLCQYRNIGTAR
# Test: mAChR M4 cell-based functional assay (calcium mobilization, CHO-K1 hM4-Gqi5 cells)
# Details: for Emax at 30 µM: CHO-K1, % ACh maximum at 30 μM, human M4; for EC50: positive allosteric modulator activity, increase in the EC20 acetylcholine response, CHO-K1 hM4-Gqi5 cells, read-out: Human M4 EC50
# In short: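 CHO-K1 cells stably expressing human M4 with chimeric Gqi5, loaded with Fluo-4 AM; compounds given as 11-point 1:3 curves and calcium flux read on FDSS at 1 Hz. Acetylcholine EC20 added at 144 s, EC80 at 230 s; agonist, PAM (EC20 potentiation) and antagonist (EC80 inhibition) EC50/Emax from four-parameter fits.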
Emax at 30 µM,EC50,Compound
33%,504 nM,"Clc1nc2c(c(N3CCc4ncc(-c5cnn(C6CC6)c5)cc4C3)n1)COC2 [compound 286, 2-chloro-4-(3-(1-cyclopropyl-1H-pyrazol-4-yl)-7,8-dihydro-1,6-naphthyridin-6(5H)-yl)-5,7-dihydrofuro[3,4-d]pyrimidine]"
90%,167 nM,"Cc1cc(C#N)cnc1N1CCc2ncc(-c3c(C)noc3C)cc2C1 [compound 109, 6-[3-(3,5-dimethylisoxazol-4-yl)-7,8-dihydro-5H-1,6-naphthyridin-6-yl]-5-methyl-pyridine-3-carbonitrile]"
105%,136 nM,"Cc1c(C(=O)NCc2ccncc2)nnc(N2CCc3ncc(Nc4ccccc4F)cc3C2)c1C [compound 190, 6-[3-(2-fluoroanilino)-7,8-dihydro-5H-1,6-naphthyridin-6-yl]-4,5-dimethyl-N-(4-pyridylmethyl)pyridazine-3-carboxamide]"
70%,1360 nM,"Cc1cc(C(=O)NCc2cncc(Br)c2)cnc1N1CCc2ncccc2C1 [compound 139, N-[(5-bromo-3-pyridyl)methyl]-6-(7,8-dihydro-5H-1,6-naphthyridin-6-yl)-5-methyl-pyridine-3-carboxamide]"
36%,819 nM,"Cc1nc(Cl)c(C)c(N2Cc3cc(-c4cn(C)nc4C)cnc3C(C)(C)C2)n1 [compound 238, 6-(6-chloro-2,5-dimethylpyrimidin-4-yl)-3-(1,3-dimethyl-1H-pyrazol-4-yl)-8,8-dimethyl-5,6,7,8-tetrahydro-1,6-naphthyridine]"
87%,265 nM,"Cc1cc(C(=O)NCc2nccs2)cnc1N1CCc2ncc(-c3ccn(C)n3)cc2C1 [compound 171, 5-methyl-6-[3-(1-methylpyrazol-3-yl)-7,8-dihydro-5H-1,6-naphthyridin-6-yl]-N-(thiazol-2-ylmethyl)pyridine-3-carboxamide]"
98%,142 nM,"Cc1cc(C#N)cnc1N1CCc2ncc(-c3c(C)nn(C)c3C)cc2C1 [compound 107, 5-methyl-6-[3-(1,3,5-trimethylpyrazol-4-yl)-7,8-dihydro-5H-1,6-naphthyridin-6-yl]pyridine-3-carbonitrile]"
79%,69 nM,"Cc1nc(C(F)(F)F)nc(N2CCc3ncc(N4CCCn5nccc54)cc3C2)c1C [compound 258, 3-(6,7-dihydropyrazolo[1,5-a]pyrimidin-4(5H)-yl)-6-(5,6-dimethyl-2-(trifluoromethyl)pyrimidin-4-yl)-5,6,7,8-tetrahydro-1,6-naphthyridine]"
103%,709 nM,"COCc1nc(Cl)c(C)c(N2CCc3ncc(C(F)(F)F)cc3C2)n1 [compound 214, 6-(6-chloro-2-(methoxymethyl)-5-methylpyrimidin-4-yl)-3-(trifluoromethyl)-5,6,7,8-tetrahydro-1,6-naphthyridine]"
85%,354 nM,"Cc1ncc(-c2cnc3c(c2)CN(c2nnc(C#N)c(C)c2C)CC3)s1 [compound 293, 4,5-dimethyl-6-(3-(2-methylthiazol-5-yl)-7,8-dihydro-1,6-naphthyridin-6(5H)-yl)pyridazine-3-carbonitrile]"
82%,815 nM,"Cc1nc(Cl)c(C)c(N2CCc3ncc(Nc4ccc(F)cc4F)cc3C2)n1 [compound 87, 6-(6-chloro-2,5-dimethyl-pyrimidin-4-yl)-N-(2,4-difluorophenyl)-7,8-dihydro-5H-1,6-naphthyridin-3-amine]"

# The next lines start with the molecule.
Compound,Emax at 30 µM,EC50
"Cc1cc(C(=O)NCc2csc3ccccc23)cnc1N1CCc2ncc(C(F)(F)F)cc2C1 [Example 447, N-(benzo[b]thiophen-3-ylmethyl)-5-methyl-6-(3-(trifluoromethyl)-7,8-dihydro-1,6-naphthyridin-6(5H)-yl)nicotinamide]",97%,1640 nM
"Cc1cc(C(=O)NCc2cccnc2)cnc1N1CCc2ncccc2C1 [compound 60, 6-(7,8-dihydro-5H-1,6-naphthyridin-6-yl)-5-methyl-N-(3-pyridylmethyl)pyridine-3-carboxamide]",61%,4720 nM
"Cc1cc(C#N)nnc1N1Cc2cc(N3CCOCC3)cnc2C(C)C1 (stereo not drawn) [Example 404, 5-methyl-6-(8-methyl-3-morpholino-7,8-dihydro-1,6-naphthyridin-6(5H)-yl)pyridazine-3-carbonitrile]",72%,901 nM
Cc1cc(C#N)cnc1N1CCc2ncc(Nc3ccc(F)cc3)cc2C1 [Example 2],85%,457 nM
"Cc1cc(C(=O)N2CC3(COC3)C2)nnc1N1CCc2ncc(Nc3ccnn3C)cc2C1 [Example 561, (5-methyl-6-(3-((1-methyl-1H-pyrazol-5-yl)amino)-7,8-dihydro-1,6-naphthyridin-6(5H)-yl)pyridazin-3-yl)(2-oxa-6-azaspiro[3.3]heptan-6-yl)methanone]",82%,169 nM
"Cc1c(C#N)nnc(N2CCc3ncc(Oc4ccc(F)cc4)cc3C2)c1C [Example 300, 6-(3-(4-fluorophenoxy)-7,8-dihydro-1,6-naphthyridin-6(5H)-yl)-4,5-dimethylpyridazine-3-carbonitrile]",71%,246 nM
"Cc1c(C#N)nnc(N2CCc3ncc(Nc4ccccc4C(F)(F)F)cc3C2)c1C [compound 43, 4,5-dimethyl-6-[3-[2-(trifluoromethyl)anilino]-7,8-dihydro-5H-1,6-naphthyridin-6-yl]pyridazine-3-carbonitrile]",71%,1160 nM
"Cc1cc(C(N)=O)cnc1N1CCc2ncc(C(F)(F)F)cc2C1 [Example 448, 5-methyl-6-(3-(trifluoromethyl)-7,8-dihydro-1,6-naphthyridin-6(5H)-yl)nicotinamide]",102%,537 nM
"Cc1c(C#N)nnc(N2CCc3ncc(Oc4cccc(F)c4F)cc3C2)c1C [Example 352, 6-(3-(2,3-difluorophenoxy)-7,8-dihydro-1,6-naphthyridin-6(5H)-yl)-4,5-dimethylpyridazine-3-carbonitrile]",64%,233 nM
"Cc1cc(C(=O)N2CC(C)(O)C2)nnc1N1CCc2ncc(N3CCCn4nccc43)cc2C1 [Example 547, (6-(3-(6,7-dihydropyrazolo[1,5-a]pyrimidin-4(5H)-yl)-7,8-dihydro-1,6-naphthyridin-6(5H)-yl)-5-methylpyridazin-3-yl)(3-hydroxy-3-methylazetidin-1-yl)methanone]",122%,40 nM
"[2H]C([2H])([2H])c1cnc2c(c1)CN(c1nnc(C(=O)NC3(c4cccnc4)CC3)cc1C)CC2 [Example 580, 5-methyl-6-(3-(methyl-d3)-7,8-dihydro-1,6-naphthyridin-6(5H)-yl)-N-(1-(pyridin-3-yl)cyclopropyl)pyridazine-3-carboxamide]",75%,108 nM
Cc1ccc(F)c(Nc2cnc3c(c2)CN(c2nnc(C#N)c(C)c2C)CC3)c1 [Example 37],57%,438 nM
"Cc1cc(C#N)cnc1N1CCc2ncc(Oc3cccc(F)c3F)cc2C1 [Example 350, 6-(3-(2,3-difluorophenoxy)-7,8-dihydro-1,6-naphthyridin-6(5H)-yl)-5-methylnicotinonitrile]",84%,547 nM
"Cc1cc(F)ncc1-c1cnc2c(c1)CN(c1nnc(C#N)c(C)c1C)CC2 [Example 320, 6-(3-(6-fluoro-4-methylpyridin-3-yl)-7,8-dihydro-1,6-naphthyridin-6(5H)-yl)-4,5-dimethylpyridazine-3-carbonitrile]",54%,2680 nM
"Cc1c(C#N)nnc(N2CCc3ncc(Oc4ccc(F)cc4F)cc3C2)c1C [Example 354, 6-(3-(2,4-difluorophenoxy)-7,8-dihydro-1,6-naphthyridin-6(5H)-yl)-4,5-dimethylpyridazine-3-carbonitrile]",64%,271 nM
"Cc1cc(C(=O)N2CCCC2)nnc1N1CCc2ncc(N3CCO[C@H](C)C3)cc2C1 [Example 536, (R)-(5-methyl-6-(3-(2-methylmorpholino)-7,8-dihydro-1,6-naphthyridin-6(5H)-yl)pyridazin-3-yl)(pyrrolidin-1-yl)methanone]",86%,1150 nM
"Cc1cc(C#N)cnc1N1CCc2ncc(Cc3ccccc3F)cc2C1 [Example 365, 6-(3-(2-fluorobenzyl)-7,8-dihydro-1,6-naphthyridin-6(5H)-yl)-5-methylnicotinonitrile]",89%,358 nM
"[2H]C1([2H])Cc2ncc(Nc3cccnc3C)cc2C([2H])([2H])N1c1ncc(C#N)cc1C [Example 602, 5-methyl-6-(3-((2-methylpyridin-3-yl)amino)-7,8-dihydro-1,6-naphthyridin-6(5H)-yl-5,5,7,7-d4)nicotinonitrile]",92%,35 nM
"[2H]C1([2H])Cc2ncc(-c3c(C)noc3C)cc2C([2H])([2H])N1c1nnc(C#N)cc1C [Example 621, 6-(3-(3,5-dimethylisoxazol-4-yl)-7,8-dihydro-1,6-naphthyridin-6(5H)-yl-5,5,7,7-d4)-5-methylpyridazine-3-carbonitrile]",85%,318 nM
